Experimental data taken from patent US20210387983A1, “CRYSTALLINE ALK5 INHIBITORS AND USES THEREOF” (THERAVANCE BIOPHARMA R&D IP, LLC, priority 2020, published 2021).

Experiment: Dynamic moisture sorption (DMS) analysis
Type: physicochemical
Conditions: for XRPD pattern of solid after two consecutive sorption-desorption cycles: 5-90% RH, 25° C.; for total moisture gain: exposed to 5-90% relative humidity, about 25° C.; for hygroscopicity: from DMS data
Method: Dynamic moisture sorption (DMS) analysis was performed on weighed samples of the crystalline forms of the compound of Formula I using a VTI atmospheric microbalance, SGA-100 system (VTI Corp., Hialeah, Fla. 33016). Following an initial drying step (approximately 0% RH) of 2 hours, two cycles of sorption and desorption were completed isothermally at 25° C. at a scan rate of 5% RH/step over a humidity range of 5 to 90% RH. Representative DMS traces of polymorph Form I and polymorph Form II of a fumarate salt of the compound of Formula I and polymorph Form III of the compound of Formula I (freebase) are shown in FIG. 4, FIG. 8 and FIG. 12, respectively.

Compound | XRPD pattern of solid after two consecutive sorption-desorption cycles | total moisture gain | hygroscopicity
C[C@@H]1CN(CCNc2cnc3ccc(-c4nc[nH]c4-c4cc(Cl)ccc4F)nc3c2)C[C@H](C)N1.O=C(O)/C=C/C(=O)O [polymorph Form I, 6-(5-(5-chloro-2-fluorophenyl)-1H-imidazol-4-yl)-N-(2-((3S,5R)-3,5-dimethylpiperazin-1-yl)ethyl)-1,5-naphthyridin-3-amine, fumaric Acid] | no change in form | about 1.30 % by weight | slightly-hygroscopic
C[C@@H]1CN(CCNc2cnc3ccc(-c4nc[nH]c4-c4cc(Cl)ccc4F)nc3c2)C[C@H](C)N1 [polymorph Form III, 6-(5-(5-chloro-2-fluorophenyl)-1H-imidazol-4-yl)-N-(2-((3S,5R)-3,5-dimethylpiperazin-1-yl)ethyl)-1,5-naphthyridin-3-amine] | no change in form | about 0.6 % by weight | slightly-hygroscopic
C[C@@H]1CN(CCNc2cnc3ccc(-c4nc[nH]c4-c4cc(Cl)ccc4F)nc3c2)C[C@H](C)N1.O=C(O)/C=C/C(=O)O [polymorph Form II, 6-(5-(5-chloro-2-fluorophenyl)-1H-imidazol-4-yl)-N-(2-((3S,5R)-3,5-dimethylpiperazin-1-yl)ethyl)-1,5-naphthyridin-3-amine, fumaric Acid] | no change in form | about 0.85 % by weight | slightly-hygroscopic
